Test results reported in US20240294522A1 (Lead Discovery Center GmbH, priority 2021, published 2024).

Experiments:
[1] = biological target: T1, GRK5 (Homo sapiens, UniProt P34947); assay: Lance Kinase Activity Assay, GRK5; conditions: biochemical Lance kinase activity assay; class symbols A-F; read-out: GRK5 LANCE Assay (IC-50)
T1 construct: purchased Thermo Scientific
Method: (§1) This protocol describes how the Lance Kinase Activity Assay was performed to determine IC50 values of compounds of general formula (I) against GRK5 and GRK2.
(§2) The principle behind this enzymatic assay is based upon the phosphorylation of the Ulight-peptide substrate. It is detected by using a specific EU-labeled anti-phospho peptide antibody. The binding of the Eu labeled anti-phospho peptide antibody to the phosphorylated ULight labeled peptide gives rise to a FRET-signal. Binding of an inhibitor to the kinase prevents phosphorylation of the Ulight-substrate, resulting in a loss of FRET. In tables 2 and 3 the relevant information for these two LANCE assays is summarized.
(§3) For every sample, 2 μl of assay buffer (50 mM HEPES pH 7,5, 10 mM MgCL2, 1 mM EGTA 0,01% Tween 20, 1% DMSO, 2 mM DTT) were transferred into a suitable assay plate (e.g. Corning #3673). Compounds were added in a concentration range from 10 μM to 0.0025 μM using an acoustic dispenser (Echo520 from Labcycte, San Jose, USA) equipped with Echo Dose Response software. After that 6 μl of kinase-substrate mix was added. Reaction was started by addition of 2 μl ATP working solution and mixed using a Bioshake 5000 microplate shaker (Q Instruments, Jena, Germany).
(§4) After 1 h incubation at room temperature the reaction was stopped with 10 μl detection mix containing the Eu-labeled phosphospecific antibody and 10 mM EDTA. After a second incubation period of 1 h at room temperature the FRET signal was measured at 340 nm excitation, 665 nm and 615 nm emission (for the ULight-substrate and Eu-AB, respectively) with an Envision microplate reader (Perkin Elmer, Waltham, MA, USA) with 50 μs delay and 300 μs integration time. IC50 values were determined from the sigmoidal dose response curves with the software Quattro Workflow (Quattro GmbH, Munich, Germany).
(§5) Inhibition is indicated as IC50 [nM] (“−”=not measured). Compounds having an activity designated as “A” provided an IC50≤50 nM; compounds having an activity designated as “B” provided an 50 nM<IC50≤100 nM; compounds having an activity designated as “C” provided an 100 nM<IC50≤500 nM; compounds having an activity designated as “D” provided an 500 nM<IC50≤1000 nM; compounds having an activity designated as “E” provided an 1000 nM<IC50≤10000 nM; and compounds having an activity designated as “F” provided an IC50>10000 nM.

[2] = biological target: T2, GRK2 (Homo sapiens, UniProt P25098); assay: Lance Kinase Activity Assay, GRK2; conditions: biochemical Lance kinase activity assay; class symbols A-F; read-out: GRK2 LANCE Assay (IC-50)
T2 construct: purchased Thermo Scientific
T2 sequence (P25098 1-689): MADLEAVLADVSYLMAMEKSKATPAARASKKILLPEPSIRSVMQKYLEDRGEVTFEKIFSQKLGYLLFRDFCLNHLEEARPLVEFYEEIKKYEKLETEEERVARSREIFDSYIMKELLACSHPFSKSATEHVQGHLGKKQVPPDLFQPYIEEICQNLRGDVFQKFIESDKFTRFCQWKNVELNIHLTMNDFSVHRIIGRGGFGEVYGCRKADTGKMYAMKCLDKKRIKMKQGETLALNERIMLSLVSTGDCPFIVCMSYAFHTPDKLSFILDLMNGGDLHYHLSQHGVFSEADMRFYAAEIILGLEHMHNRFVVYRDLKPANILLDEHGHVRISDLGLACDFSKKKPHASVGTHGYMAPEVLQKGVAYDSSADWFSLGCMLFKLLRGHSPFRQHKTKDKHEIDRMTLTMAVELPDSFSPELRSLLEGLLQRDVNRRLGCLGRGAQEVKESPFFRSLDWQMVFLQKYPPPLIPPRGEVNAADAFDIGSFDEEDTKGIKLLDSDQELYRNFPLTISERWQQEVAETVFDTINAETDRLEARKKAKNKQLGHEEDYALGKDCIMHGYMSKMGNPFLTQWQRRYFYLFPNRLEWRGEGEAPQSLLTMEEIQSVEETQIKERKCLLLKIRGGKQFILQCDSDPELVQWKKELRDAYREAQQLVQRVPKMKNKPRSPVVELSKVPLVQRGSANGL
Method: as §1, §2, §3, §4, §5

T1 sequence (P34947 whole entry): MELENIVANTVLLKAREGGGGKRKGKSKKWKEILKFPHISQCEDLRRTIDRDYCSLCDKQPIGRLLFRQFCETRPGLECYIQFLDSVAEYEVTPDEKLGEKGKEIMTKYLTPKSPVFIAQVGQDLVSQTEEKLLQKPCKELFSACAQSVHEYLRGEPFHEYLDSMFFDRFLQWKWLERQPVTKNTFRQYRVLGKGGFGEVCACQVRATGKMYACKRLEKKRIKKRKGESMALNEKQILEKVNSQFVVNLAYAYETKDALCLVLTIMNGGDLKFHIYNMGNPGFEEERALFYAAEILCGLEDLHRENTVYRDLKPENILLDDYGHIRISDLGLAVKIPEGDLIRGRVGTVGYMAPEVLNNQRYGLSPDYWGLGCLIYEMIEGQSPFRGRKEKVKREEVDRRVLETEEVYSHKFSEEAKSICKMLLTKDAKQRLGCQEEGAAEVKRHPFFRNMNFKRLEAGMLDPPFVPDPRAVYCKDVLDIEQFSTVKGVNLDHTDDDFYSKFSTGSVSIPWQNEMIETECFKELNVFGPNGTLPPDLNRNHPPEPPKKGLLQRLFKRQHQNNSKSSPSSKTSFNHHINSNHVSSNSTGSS

SMILES | IC50 [1] [nM] | IC50 [2] [nM]
O=C(/C=C/c1c[nH]c2nccc(Cl)c12)NCc1cccc(F)c1 [Example 8, (E)-3-(4-chloro-1H-pyrrolo[2,3-b]pyridin-3-yl)-N-(3-fluorobenzyl)acrylamide] | 1000 to 10000 | 500 to 1000
CC(NC(=O)/C=C/c1c[nH]c2ncccc12)c1ccc(F)cc1 (stereo not drawn) [Example 10, (E)-N-(1-(4-fluorophenyl)ethyl)-3-(1H-pyrrolo[2,3-b]pyridin-3-yl)acrylamide] | 1000 to 10000 | 1000 to 10000
C[C@@H](NC(=O)/C(C#N)=C/c1c[nH]c2ncccc12)c1ccccc1Cl [Example 12, (R,E)-N-(1-(2-chlorophenyl)ethyl)-2-cyano-3-(1H-pyrrolo[2,3-b]pyridin-3-yl)acrylamide] | 100 to 500 | 500 to 1000
N#C/C(=C\c1c[nH]c2ncccc12)C(=O)N[C@@H](c1ccccc1)C(F)(F)F [Example 14, (S,E)-2-cyano-3-(1H-pyrrolo[2,3-b]pyridin-3-yl)-N-(2,2,2-trifluoro-1-phenylethyl)acrylamide] | 500 to 1000 | 1000 to 10000
C[C@@H](NC(=O)/C(C#N)=C/c1c[nH]c2ncccc12)c1ccc(F)cc1F [Example 17, (R,E)-2-cyano-N-(1-(2,4-difluorophenyl)ethyl)-3-(1H-pyrrolo[2,3-b]pyridin-3-yl)acrylamide] | 100 to 500 | 100 to 500
C[C@@H](NC(=O)/C(C#N)=C/c1c[nH]c2ncccc12)c1cccc(C(F)(F)F)c1 [Example 18, (R,E)-2-cyano-3-(1H-pyrrolo[2,3-b]pyridin-3-yl)-N-(1-(3-(trifluoromethyl)phenyl)ethyl)acrylamide] | 100 to 500 | 500 to 1000
COc1ccc([C@@H](C)NC(=O)/C(C#N)=C/c2c[nH]c3ncccc23)cc1 [Example 19, (R,E)-2-cyano-N-(1-(4-methoxyphenyl)ethyl)-3-(1H-pyrrolo[2,3-b]pyridin-3-yl)acrylamide] | 100 to 500 | 1000 to 10000
C[C@@H](NC(=O)/C(C#N)=C/c1c[nH]c2ncccc12)c1ccc(Cl)c(Cl)c1 [Example 20, (R,E)-2-cyano-N-(1-(3,4-dichlorophenyl)ethyl)-3-(1H-pyrrolo[2,3-b]pyridin-3-yl)acrylamide] | 100 to 500 | 100 to 500
N#C/C(=C\c1c[nH]c2ncccc12)C(=O)NCc1ccc(S(N)(=O)=O)cc1 [Example 21, (E)-2-cyano-3-(1H-pyrrolo[2,3-b]pyridin-3-yl)-N-(4-sulfamoylbenzyl)acrylamide] | 1000 to 10000 | > 10000
Cc1ccc(Br)cc1CNC(=O)/C(C#N)=C/c1c[nH]c2ncccc12 [Example 23, (E)-N-(5-bromo-2-methylbenzyl)-2-cyano-3-(1H-pyrrolo[2,3-b]pyridin-3-yl)acrylamide] | 1000 to 10000 | > 10000
CN(C)c1ccc(CNC(=O)/C(C#N)=C/c2c[nH]c3ncccc23)cc1 [Example 24, (E)-2-cyano-N-(4-(dimethylamino)benzyl)-3-(1H-pyrrolo[2,3-b]pyridin-3-yl)acrylamide] | 1000 to 10000 | > 10000
CN(C)c1ccccc1CNC(=O)/C(C#N)=C/c1c[nH]c2ncccc12 [Example 25, (E)-2-cyano-N-(2-(dimethylamino)benzyl)-3-(1H-pyrrolo[2,3-b]pyridin-3-yl)acrylamide] | 1000 to 10000 | > 10000
N#C/C(=C\c1c[nH]c2ncccc12)C(=O)NCc1ccc(C#N)cc1 [Example 26, (E)-2-cyano-N-(4-cyanobenzyl)-3-(1H-pyrrolo[2,3-b]pyridin-3-yl)acrylamide] | 1000 to 10000 | 1000 to 10000
N#C/C(=C\c1c[nH]c2ncccc12)C(=O)NCc1cccc(CS(N)(=O)=O)c1 [Example 27, (E)-2-cyano-3-(1H-pyrrolo[2,3-b]pyridin-3-yl)-N-(3-(sulfamoylmethyl)benzyl)-acrylamide] | 1000 to 10000 | 1000 to 10000
N#C/C(=C\c1c[nH]c2ncccc12)C(=O)NCc1cccc(C(N)=O)c1 [Example 28, (E)-3-((2-cyano-3-(1H-pyrrolo[2,3-b]pyridin-3-yl)acrylamido)methyl)benzamide] | 500 to 1000 | 100 to 500
CS(=O)(=O)Nc1cccc(CNC(=O)/C(C#N)=C/c2c[nH]c3ncccc23)c1 [Example 29, (E)-2-cyano-N-(3-(methylsulfonamido)benzyl)-3-(1H-pyrrolo[2,3-b]pyridin-3-yl)acrylamide] | 500 to 1000 | 100 to 500
CN(C)c1cccc(CNC(=O)/C(C#N)=C/c2c[nH]c3ncccc23)c1 [Example 30, (E)-2-cyano-N-(3-(dimethylamino)benzyl)-3-(1H-pyrrolo[2,3-b]pyridin-3-yl)acrylamide] | 1000 to 10000 | > 10000
N#C/C(=C\c1c[nH]c2ncccc12)C(=O)NCc1cccc(C#N)c1 [Example 31, (E)-2-cyano-N-(3-cyanobenzyl)-3-(1H-pyrrolo[2,3-b]pyridin-3-yl)acrylamide] | 500 to 1000 | 1000 to 10000

The remaining lines, values ahead:

IC50 [1] [nM] | IC50 [2] [nM] | SMILES
≤ 50 | 1000 to 10000 | COc1ccc([C@@H](C)NC(=O)C(C#N)=Cc2c[nH]c3ncc(-c4ccc(CCN(C)C)cc4)cc23)cc1OC (stereo in doubt) [Example 135]
100 to 500 | 100 to 500 | C[C@@H](NC(=O)/C(C#N)=C/c1c[nH]c2ncccc12)c1cccc(F)c1 [Example 1, (R,E)-2-cyano-N-(1-(3-fluorophenyl)ethyl)-3-(1H-pyrrolo[2,3-b]pyridin-3-yl)acrylamide]
100 to 500 | 1000 to 10000 | O=C(/C=C/c1c[nH]c2ncc(Cl)cc12)NCc1ccccc1 [Example 6, (E)-N-benzyl-3-(5-chloro-1H-pyrrolo[2,3-b]pyridin-3-yl)acrylamide]
100 to 500 | 1000 to 10000 | O=C(/C=C/c1c[nH]c2ncc(Cl)cc12)NCc1cccc(F)c1 [Example 7, (E)-3-(5-chloro-1H-pyrrolo[2,3-b]pyridin-3-yl)-N-(3-fluorobenzyl)acrylamide]
≤ 50 | 1000 to 10000 | COc1ccc([C@@H](C)NC(=O)/C=C/c2c[nH]c3ncc(Br)cc23)cc1OC [Example 11, (R,E)-3-(5-bromo-1H-pyrrolo[2,3-b]pyridin-3-yl)-N-(1-(3,4-dimethoxyphenyl)ethyl)acrylamide]
50 to 100 | 100 to 500 | C[C@@H](NC(=O)/C(C#N)=C/c1c[nH]c2ncccc12)c1cccc(Cl)c1 [Example 13, (R,E)-N-(1-(3-chlorophenyl)ethyl)-2-cyano-3-(1H-pyrrolo[2,3-b]pyridin-3-yl)acrylamide]
50 to 100 | 1000 to 10000 | COc1ccc([C@@H](C)NC(=O)/C(C#N)=C/c2c[nH]c3ncccc23)cc1OC [Example 15, (R,E)-2-cyano-N-(1-(3,4-dimethoxyphenyl)ethyl)-3-(1H-pyrrolo[2,3-b]pyridin-3-yl)acrylamide]
50 to 100 | 50 to 100 | C[C@@H](NC(=O)/C(C#N)=C/c1c[nH]c2ncccc12)c1ccc(F)c(F)c1 [Example 16, (R,E)-2-cyano-N-(1-(3,4-difluorophenyl)ethyl)-3-(1H-pyrrolo[2,3-b]pyridin-3-yl)acrylamide]
50 to 100 | 50 to 100 | N#C/C(=C\c1c[nH]c2ncccc12)C(=O)NC(CO)c1ccccc1 (stereo not drawn) [Example 32, (E)-2-cyano-N-(2-hydroxy-1-phenylethyl)-3-(1H-pyrrolo[2,3-b]pyridin-3-yl)acrylamide]
